Laboratory results published in BindingDB's records for patent US11046658 (Incyte, 2021).

How the values were obtained:
[1] = molecular target: Phosphatidylinositol 4,5-bisphosphate 3-kinase catalytic subunit gamma isoform (Homo sapiens, UniProt P48736); assay: PI3K-gamma Scintillation Proximity Assay
Description: (§1) Materials: [γ-33P]ATP (10 mCi/mL) and Wheat Germ Agglutinin (WGA) YSi SPA Scintillation Beads was purchased from Perkin Elmer (Waltham, Mass.). Lipid kinase substrate, D-myo-Phosphatidylinositol 4,5-bisphosphate (PtdIns(4,5)P2)D (+)-sn-1,2-di-O-octanoylglyceryl, 3-O-phospho linked (PIP2), CAS 204858-53-7, was purchased from Echelon Biosciences (Salt Lake City, Utah). PI3Kγ (p110γ) Recombinant Human Protein was purchased from Life technology (Grand Island, N.Y.). ATP, MgCl2, DTT, EDTA, MOPS and CHAPS were purchased from Sigma Aldrich (St. Louis, Mo.).The kinase reaction was conducted in polystyrene 384-well Greiner Bio-one white plate from Thermo Fisher Scientific in a final volume of 25 μL. Inhibitors were first diluted serially in DMSO and added to the plate wells before the addition of other reaction components. The final concentration of DMSO in the assay was 2%. The PI3Kγ assay was carried out at room temperature in 20 mM MOPS, pH 6.7, 10 mM MgCl2, 5 mM DTT and CHAPS 0.03%. Reactions were initiated by the addition of ATP, the final reaction mixture consisted of 20 μM PIP2, 2 μM ATP, 0.5 μCi [γ-33P] ATP, 13 nM PI3Kγ. […] After the plate sealing, plates were shaken overnight at room temperature and centrifuged at 1500 rpm for 10 min, the radioactivity of the product was determined by scintillation counting on Topcount (Perkin-Elmer). […]

[2] = molecular target: T1, Phosphatidylinositol 4,5-bisphosphate 3-kinase catalytic subunit delta isoform (Homo sapiens, UniProt O00329); assay: PI3Kdelta Scintillation Proximity Assay
T1 sequence (O00329 whole entry): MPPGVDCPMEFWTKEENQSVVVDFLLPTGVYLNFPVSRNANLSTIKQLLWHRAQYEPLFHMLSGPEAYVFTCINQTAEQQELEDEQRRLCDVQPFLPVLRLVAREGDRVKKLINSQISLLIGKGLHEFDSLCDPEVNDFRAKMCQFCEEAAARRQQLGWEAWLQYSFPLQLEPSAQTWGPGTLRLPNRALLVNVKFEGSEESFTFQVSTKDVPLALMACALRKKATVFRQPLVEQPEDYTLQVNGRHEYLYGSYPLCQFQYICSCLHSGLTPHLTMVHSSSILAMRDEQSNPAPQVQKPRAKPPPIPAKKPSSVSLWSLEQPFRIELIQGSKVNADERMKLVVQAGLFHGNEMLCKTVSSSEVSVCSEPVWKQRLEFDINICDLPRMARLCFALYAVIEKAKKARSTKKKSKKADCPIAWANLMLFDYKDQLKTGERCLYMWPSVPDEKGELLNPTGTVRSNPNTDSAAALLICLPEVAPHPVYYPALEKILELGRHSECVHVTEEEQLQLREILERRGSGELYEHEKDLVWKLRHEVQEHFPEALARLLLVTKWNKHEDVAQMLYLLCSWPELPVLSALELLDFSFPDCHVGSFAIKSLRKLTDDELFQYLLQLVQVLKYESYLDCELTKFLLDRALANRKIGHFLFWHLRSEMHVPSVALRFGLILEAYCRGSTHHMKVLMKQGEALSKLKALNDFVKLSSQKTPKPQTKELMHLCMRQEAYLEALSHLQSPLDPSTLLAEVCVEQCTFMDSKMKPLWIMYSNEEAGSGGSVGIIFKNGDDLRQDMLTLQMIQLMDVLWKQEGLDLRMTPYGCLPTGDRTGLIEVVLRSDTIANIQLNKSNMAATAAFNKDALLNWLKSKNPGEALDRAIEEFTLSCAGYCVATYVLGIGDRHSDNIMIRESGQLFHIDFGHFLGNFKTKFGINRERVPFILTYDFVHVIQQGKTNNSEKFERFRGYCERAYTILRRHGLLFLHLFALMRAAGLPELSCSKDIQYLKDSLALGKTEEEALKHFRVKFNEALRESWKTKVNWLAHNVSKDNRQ
Description: as §1, with “PI3Kδ (p110δ/p85α)” for “PI3Kγ (p110γ)”, “Eurofins (St Charles, Mo.).” for “Life technology (Grand Island, N.Y.).”, “PI3Kδ” for “PI3Kγ”, “3.4” for “13”, “PI3Kδ.” for “PI3Kγ.”, “(PerkinElmer).” for “(Perkin-Elmer).”

Sequence of Phosphatidylinositol 4,5-bisphosphate 3-kinase catalytic subunit gamma isoform (P48736 whole entry, canonical isoform): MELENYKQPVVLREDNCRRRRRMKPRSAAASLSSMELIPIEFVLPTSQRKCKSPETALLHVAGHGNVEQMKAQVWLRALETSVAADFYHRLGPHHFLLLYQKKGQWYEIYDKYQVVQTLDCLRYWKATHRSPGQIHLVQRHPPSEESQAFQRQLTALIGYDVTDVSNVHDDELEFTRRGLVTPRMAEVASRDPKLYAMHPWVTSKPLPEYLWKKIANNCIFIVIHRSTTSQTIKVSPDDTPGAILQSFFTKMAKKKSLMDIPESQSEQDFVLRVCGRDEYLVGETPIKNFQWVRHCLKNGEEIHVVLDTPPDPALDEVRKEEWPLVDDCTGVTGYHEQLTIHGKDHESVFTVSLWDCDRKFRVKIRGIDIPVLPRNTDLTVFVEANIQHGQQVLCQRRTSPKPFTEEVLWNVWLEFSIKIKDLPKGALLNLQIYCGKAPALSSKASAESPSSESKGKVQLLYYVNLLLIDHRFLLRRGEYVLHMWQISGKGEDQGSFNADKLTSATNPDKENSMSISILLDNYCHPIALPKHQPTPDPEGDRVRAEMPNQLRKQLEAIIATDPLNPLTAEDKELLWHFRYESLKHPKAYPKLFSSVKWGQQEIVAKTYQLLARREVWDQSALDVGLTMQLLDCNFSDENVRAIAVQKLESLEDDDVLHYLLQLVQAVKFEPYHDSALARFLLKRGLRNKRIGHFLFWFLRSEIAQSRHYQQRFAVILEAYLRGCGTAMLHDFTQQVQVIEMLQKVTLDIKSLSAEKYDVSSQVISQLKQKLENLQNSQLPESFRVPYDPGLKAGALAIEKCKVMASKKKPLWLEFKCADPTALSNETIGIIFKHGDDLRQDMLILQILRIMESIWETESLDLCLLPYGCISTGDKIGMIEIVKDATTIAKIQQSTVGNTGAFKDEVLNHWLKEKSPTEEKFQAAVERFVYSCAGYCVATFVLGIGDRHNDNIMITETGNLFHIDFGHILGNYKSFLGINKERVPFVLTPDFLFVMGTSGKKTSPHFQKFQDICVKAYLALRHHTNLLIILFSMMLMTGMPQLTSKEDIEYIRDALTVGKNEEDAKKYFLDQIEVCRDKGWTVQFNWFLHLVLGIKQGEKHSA

## C#Cc1ccccc1N1CCN(c2nc(-c3cc(C(O)(C(N)=O)C(F)(F)F)ccc3C)cnc2N)CC1 (configuration not stated) [US11046658, Example 122]
[1]
  IC50: < 100 nM
[2]
  IC50: < 100 nM
